The text below walks through data of patent US12419892B2, “Pharmaceutical compositions comprising nilotinib” (XSPRAY PHARMA AB, priority 2023, dated 2025).

The conditions of data set [1]: cited from earlier work.
For data set [2] the following is noted: literature (Li, Singamsetti, Puppala); cited from earlier work.
Data set [3] in a line: Genotoxicity classification of Nilotinib impurity A. The conditions noted are these: not disclosed. From the text:
Regulatory agencies, such as the FDA and the European Medicines Agency (EMA), have specific guidelines and regulations for assessing and managing the risks associated with genotoxic compounds, particularly in the context of pharmaceuticals and chemical safety.

For `O=C1O[C@H]([C@@H](O)CO)C(O)=C1O` [Ascorbic acid, ascorbic acid], the pKa entry in data set [1] is reported as “about 4.2”. Turning to `Cc1cn(-c2cc(N)cc(C(F)(F)F)c2)cn1` [Nilotinib impurity A, 3-(4-methylimidazol-1-yl)-5-(trifluoromethyl) aniline], the genotoxicity classification entry in data set [2] was “potentially genotoxic or mutagenic”. The “genotoxicity, internal evaluations” value in data set [3] is on record as “may not be genotoxic”.
